Test results reported in patent US8476253B2, “Amide derivative” (Daiichi Sankyo Company, Limited, priority 2009, dated 2013).
Structures can show the parent of a compound that is named as a salt. Where two headings read alike, the source gives them in different places.

What was measured:
[1] = molecular target: T1, human M3 receptor (Homo sapiens, UniProt P20309); assay: Test for binding to human M3 receptor
T1 construct: expressed in transfected cells; host or cells: CHO cells
Method: A solution of cryopreserved CHO cells expressing human M3 receptor was diluted with a buffer (50 mM tris-hydrochloride containing 0.5 mM of EDTA, pH 7.4) to obtain 5.0×10^5 of cells/mL and used as a crude membrane sample.
[N-methyl-^3H]-(−)-Scopolamine methyl chloride (GE Healthcare Japan Corporation) was diluted with 50 mM of tris-hydrochloride containing 0.5 mM of EDTA (pH 7.4), a test substance and 250 μL of the crude membrane sample solution were added to 250 μL of the mixture, and the mixture was incubated at room temperature for 60 minutes. […] The glass fiber filter paper was pretreated with a 0.1% polyethylenimine solution for 4 hours or longer to minimize non-specific binding. The filter collecting membrane components was transferred to a small-size plastic vial containing 3 mL of Pico-Fluor, and the radioactivity was measured with a liquid scintillation counter (Tri-Carb 2900TR or 2300TR; Perkin Elmer).
The effect of binding to the M3 receptor was calculated as the affinity (Ki) of the test substance for the M3 receptor from a 50% binding dose (IC50) and the affinity (Kd) of [N-methyl-^3H]-(−)-Scopolamine methyl chloride for the M3 receptor.

[2] = system: muscarine M3 receptor; assay: Effect of suppressing methacholine-induced airway contraction (in vivo, intratracheal administration); design: species or system guinea pig; details: guinea pigs, intratracheal administration 60 minutes before 30 μg/kg i.v. methacholine; AUC of increase in airway pressure over 10 minutes
Method: (§1) Using healthy guinea pigs (body weight, 350 to 550 g; Hartley male guinea pigs), the effect of suppressing airway contraction induced by methacholine, which is a muscarine receptor agonist, was examined by a modified method of Konzett-Roessler (Naunyn-Schmiedebergs Arch. Exp. Pathol. Pharmakol. 195, 71 [1940]) using airway pressure as an indicator.
(§2) A tracheal cannula and a venous cannula were attached to a guinea pig anesthetized with pentobarbital (50 mg/mL of solution, 0.40 to 0.50 mL/body, subcutaneous administration). An arterial cannula filled with heparin-containing physiological saline (100 U/mL) was further attached, and blood pressure and heart rate were monitored via an amplifier and an instantaneous heart rate meter. Subsequently, gallamine (20 mg/body, intravenous administration) was administered to terminate spontaneous breathing, and then 10 mL/kg of positive pressure breathing (Ugo-Basile Biological Research Apparatus, Cat. No. 7025) was rapidly performed at 60 times/min. The airway pressure during artificial breathing was detected with a pressure transducer (TP-200T or TP-400T; Nihon Kohden Corporation) attached to a side branch of the tracheal cannula, amplified (AP-601G; Nihon Kohden Corporation), and recorded in a recorder. After the airway pressure, blood pressure, and heart rate were stabilized, 30 μg/kg of methacholine was intravenously administered from the venous cannula to induce airway contraction, and the airway pressure was measured for the following 10 minutes.
A test substance was dissolved in 5% glucose solution, and a 0.5 mL/kg solution was administered intratracheally with an intratracheal administration apparatus (model 1A-1B; Penn-Century, Inc.) 60 minutes before stimulation with methacholine.
(§3) The AUC of increase in the airway pressure over 10 minutes after administration of methacholine was measured as the intensity of methacholine-induced airway contraction and calculated as an ID50 value from the inhibition rate based on the value of the control group (a 5% glucose solution intratracheal administration group).

[3] = molecular target: T2, substance P receptor (Cavia porcellus, UniProt P30547); assay: Test for binding to guinea-pig substance P receptor (crude lung membrane sample); details: crude guinea-pig lung membrane sample, [3H]substance P; Ki from IC50 and Kd; read-out: Ki
T2 construct: A preparation of a crude lung membrane sample was prepared; from tissue; host or cells: guinea-pig lung (crude membrane sample)
T2 sequence (P30547 whole entry): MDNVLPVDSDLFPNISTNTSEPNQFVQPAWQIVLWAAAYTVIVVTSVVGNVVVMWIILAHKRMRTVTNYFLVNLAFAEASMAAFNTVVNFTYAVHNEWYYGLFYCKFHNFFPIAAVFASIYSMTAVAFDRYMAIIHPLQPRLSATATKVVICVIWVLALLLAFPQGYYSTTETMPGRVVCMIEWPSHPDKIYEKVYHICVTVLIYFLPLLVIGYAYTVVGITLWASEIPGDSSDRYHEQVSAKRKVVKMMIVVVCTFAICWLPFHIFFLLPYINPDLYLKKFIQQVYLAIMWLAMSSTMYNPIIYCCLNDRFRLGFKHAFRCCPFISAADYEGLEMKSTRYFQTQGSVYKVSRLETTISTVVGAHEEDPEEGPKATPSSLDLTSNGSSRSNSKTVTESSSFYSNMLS
Method: A preparation of a crude lung membrane sample was prepared, and a test for binding of a test substance to the sample was performed according to the method described in EP0336230A2.
The binding effect of the test substance to a substance P receptor was calculated as an affinity (Ki) of the test substance for the substance P receptor from a 50% binding concentration (IC50) and an affinity (Kd) of [^3H]substance P for the substance P receptor.

[4] = molecular target: T3, human NK2 receptor (Homo sapiens, UniProt P21452); assay: Test for binding to human NK2 receptor
T3 construct: expressed in transfected cells; host or cells: COS cells
T3 sequence (P21452 1-398): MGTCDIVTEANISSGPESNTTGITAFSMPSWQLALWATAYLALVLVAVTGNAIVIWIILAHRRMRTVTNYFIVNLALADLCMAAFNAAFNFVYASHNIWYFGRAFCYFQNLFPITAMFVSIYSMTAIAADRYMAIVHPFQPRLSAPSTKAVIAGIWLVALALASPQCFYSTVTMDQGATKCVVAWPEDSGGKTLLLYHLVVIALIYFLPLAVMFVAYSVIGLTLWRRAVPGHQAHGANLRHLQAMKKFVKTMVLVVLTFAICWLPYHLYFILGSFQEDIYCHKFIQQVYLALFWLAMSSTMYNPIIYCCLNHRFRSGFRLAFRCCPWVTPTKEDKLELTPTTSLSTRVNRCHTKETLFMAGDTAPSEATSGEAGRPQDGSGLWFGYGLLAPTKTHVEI
Method: A solution of cryopreserved COS cells expressing human NK2 receptor was diluted with a buffer (50 mM tris-hydrochloride containing 0.04% of bovine serum albumin [BSA], pH 7.4) to obtain a concentration of 5.0×10^5 cells/mL and used as a crude membrane sample.
[^3H]SR 48968 (GE Healthcare Japan Corporation) was diluted with a mixture of 50 mM of tris-hydrochloride (pH 7.4), 6 mM of manganese chloride tetrahydrate, 800 μg/mL of BSA, 8 μg/mL of chymostatin, 8 μg/mL of leupeptin, 80 μg/mL of bacitracin, and 20 μg/mL of phosphoramidon. […] After the reaction, the membrane components were collected on a GF/B glass fiber filter paper (Whatman; Biomedical Research and Development Laboratories, Inc.) with an automated filtration system (Brandel; Biomedical Research and Development Laboratories, Inc.). The glass fiber filter paper was pretreated with a 0.1% polyethylenimine solution for 4 hours or longer to minimize non-specific binding. The filter collecting the membrane components was transferred to a small-size plastic vial containing 3 mL of Pico-Fluor, and the radioactivity was measured with a liquid scintillation counter (Tri-Carb 2900TR or 2300TR; Perkin Elmer).
The effect of binding to the NK2 receptor was calculated as the affinity (Ki) of the test substance for the NK2 receptor from a 50% binding dose (IC50) and the affinity (Kd) of [^3H]SR 48968 for the NK2 receptor.

[5] = molecular target: T4, neurokinin NK1 receptor (Cavia porcellus, UniProt P30547); assay: Effect of suppressing substance P-induced airway contraction (in vivo, intratracheal administration); design: species or system guinea pig; details: guinea pig; guinea pigs, intratracheal administration 60 minutes before 20 μg/kg i.v. SP; AUC of increase in airway pressure over 10 minutes; read-out: ID50 (the source's name)
T4 construct: Using healthy guinea pigs (body weight, 350 to 550 g; Hartley male guinea pigs); from tissue; host or cells: live anaesthetised Hartley male guinea pigs (airway, in vivo)
T4 sequence (P30547 whole entry): as the sequence (P30547 whole entry) above
Method: as §1, with “substance P (SP),” for “methacholine,”, “an NK1” for “a muscarine”
as §2, with “mg/mL” for “mg/mL of”, “20” for “30”, “SP” for “methacholine”
The test substance was dissolved in a 5% glucose solution, a 0.5 mL/kg solution was intratracheally administered with an intratracheal administration apparatus (model 1A-1B; Penn-Century, Inc.) 60 minutes before stimulation with SP.
as §3, with “SP” for “methacholine”, “determined” for “measured”, “SP-induced” for “methacholine-induced”, “(5%” for “(a 5%”

T1 sequence (P20309 whole entry): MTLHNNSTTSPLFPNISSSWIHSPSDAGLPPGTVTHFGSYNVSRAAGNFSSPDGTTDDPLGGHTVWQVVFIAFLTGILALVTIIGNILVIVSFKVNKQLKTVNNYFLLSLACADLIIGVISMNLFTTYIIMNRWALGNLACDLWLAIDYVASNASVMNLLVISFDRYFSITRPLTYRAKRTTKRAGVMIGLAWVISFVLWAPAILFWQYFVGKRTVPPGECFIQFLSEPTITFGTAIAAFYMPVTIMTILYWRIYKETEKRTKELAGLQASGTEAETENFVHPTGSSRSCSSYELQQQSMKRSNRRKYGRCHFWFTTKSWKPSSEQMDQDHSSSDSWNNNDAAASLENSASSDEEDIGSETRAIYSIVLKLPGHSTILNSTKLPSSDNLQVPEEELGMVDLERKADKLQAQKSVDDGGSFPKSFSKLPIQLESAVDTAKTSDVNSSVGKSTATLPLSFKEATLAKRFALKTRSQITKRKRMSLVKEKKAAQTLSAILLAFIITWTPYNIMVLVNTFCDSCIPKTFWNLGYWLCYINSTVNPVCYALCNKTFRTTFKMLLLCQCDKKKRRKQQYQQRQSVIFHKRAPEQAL

For CN(CCN1CCC(OC(=O)Nc2ccccc2-c2ccccc2)CC1)C(=O)CCCCCNc1ccc(C(=O)N(C)CCCN(C)C(=O)CO[C@H]2Cc3ccccc3C23CCN(CC[C@@]2(c4ccc(F)cc4)CN(C(=O)c4cc(C(F)(F)F)cc(C(F)(F)F)c4)CO2)CC3)s1 [Example 4, 1-(2-{[6-({5-[{3-[({[(2S)-1′-{2-[(5R)-3-[3,5-Bis(trifluoromethyl)benzoyl]-5-(4-fluorophenyl)-1,3-oxazolidin-5-yl]ethyl}-2,3-dihydrospiro[indene-1,4′-piperidin]-2-yl]oxy}acetyl)(methyl)amino]propyl}(methyl)carbamoyl]-2-thienyl}amino)hexanoyl](methyl)amino}ethyl)piperidin-4-yl biphenyl-2-ylcarbamate], the Ki ([1]; CHO cells expressing human M3 receptor, [N-methyl-3H]-(-)-Scopolamine methyl chloride 0.5 nM, Ki from IC50 and Kd, read-out: Ki) was 2.1 nM, the ID50 [2] was 0.0252 mg/kg and the Ki [3] was 1.8 nM. The Ki ([4]; COS cells expressing human NK2 receptor, [3H]SR 48968 1 nM, Ki from IC50 and Kd, read-out: Ki) was 0.62 nM.
With CN(CCN1CCC(OC(=O)Nc2ccccc2-c2ccccc2)CC1)C(=O)CCCCCNc1ccc(C(=O)N(C)CCCN(C)C(=O)CO[C@H]2Cc3ccccc3C23CCN(CC[C@@]2(c4ccc(F)cc4)CN(C(=O)c4cc(C(F)(F)F)cc(C(F)(F)F)c4)CO2)CC3)c(Cl)c1 [Example 85, 1-(2-{[6-({4-[{3-[({[(2S)-1′-{2-[(5R)-3-[3,5-Bis(trifluoromethyl)benzoyl]-5-(4-fluorophenyl)-1,3-oxazolidin-5-yl]ethyl}-2,3-dihydrospiro[indene-1,4′-piperidin]-2-yl]oxy}acetyl)(methyl)amino]propyl}(methyl)carbamoyl]-3-chlorophenyl}amino)hexanoyl](methyl)amino}ethyl)piperidin-4-yl biphenyl-2-ylcarbamate trihydrochloride] the Ki [1] was 1.9 nM, the ED50 [5] was 0.0373 mg/kg and the ID50 [2] was 0.0327 mg/kg. For the same compound, the Ki [3] was 2.2 nM and the Ki [4] was 1 nM.
